For 81 compounds, viability results are on record in PMC12040169 (PLOS Biology, 2025).

Molecules are shown by their SMILES.

A short description of the series: in vitro. The settings on record: human, hela cells, % viability.
With `CCOC(=O)C1CCN(S(=O)(=O)c2ccc(Cl)s2)CC1` [CBK096109], the viability at 28.5 h, 10 µM is 94.9%.

For `c1ccc(CNc2cccc(N3CCNCC3)n2)cc1` [CBK003176T], the viability at 28.5 h, 10 µM stood at 92%.

Take `Cc1ccc(C)c(NC(=O)C(C)Sc2nc3ccccc3nc2C)c1` (stereo not drawn) [CBK296744]: the viability at 28.5 h, 10 µM turned out to be 106%.

Turning to `COc1ccc(C2C(C(C)=O)=C(O)C(=O)N2CCC(=O)O)cc1` (stereo not drawn) [CBK263763], the viability at 28.5 h, 10 µM was found to be 97.3%.

As to `CN(C)c1ccc(NC(=O)CN2C(=O)[C@H]3CCCN3c3ncccc32)cc1` [CBK286202], the viability at 28.5 h, 10 µM was found to be 118%.

Consider `CC(=O)NCc1nnc2c3ccccc3c(-c3ccccc3)nn12` [CBK270123], for which the viability at 28.5 h, 10 µM came out at 92.3%.

Take `O=C(NCc1ccco1)c1nn(-c2nc3ccccc3s2)c2ccccc12` [CBK048482]: the viability at 28.5 h, 10 µM came out at 97.4%.

On to `Cc1ccc(NC(=O)c2ccc(-c3ccccc3)cc2)c(OC(=O)c2ccc(-c3ccccc3)cc2)c1` [CBK261347], for which the viability at 28.5 h, 10 µM amounted to 98.9%.

Turning to `CS(=O)(=O)Nc1ncc(Br)cc1C(=O)NCc1ccc(F)cc1` [CBK076538], the viability at 28.5 h, 10 µM worked out at 89.6%.

`Cc1ccn(CCNC(=O)CCN2Cc3ccccc3C2=O)n1` [CBK282655]: the viability at 28.5 h, 10 µM was determined as 86.4%.

As to `O=C(O)CC(CN1C(=O)c2ccccc2C1=O)C(=O)c1ccccc1` (stereo not drawn) [CBK287221], the viability at 28.5 h, 10 µM stood at 92.4%.

Take `Cc1cccc(Nc2ncnc3ccccc23)c1` [CBK072827]: the viability at 28.5 h, 10 µM is 114%.

With `Cc1cccc(=O)n1CCCn1cc(-c2ncc[nH]2)nn1` [CBK307401], the viability at 28.5 h, 10 µM came out at 90.7%.

With `CSCCCNC(=O)N1CCN(CCc2ccccc2)CC1` [CBK158900], the viability at 28.5 h, 10 µM was 81.6%.

Regarding `CCC(C)(C)c1ccc(S(=O)(=O)N2CCN(Cc3ccc(C(C)=O)cc3)CC2)cc1` [CBK062826], the viability at 28.5 h, 10 µM is 95.1%.

As to `CC[C@@H]1CCCCN1C(=O)c1sc2nc(C(C)=O)ccc2c1Cl` [CBK091036], the viability at 28.5 h, 10 µM was determined as 88.1%.

As for `Cc1nc(C)n(CC2CN(Cc3cn4ccccc4n3)CCO2)n1` (stereo not drawn) [CBK303999], the viability at 28.5 h, 10 µM came out at 97.1%.

As to `COc1ccccc1C1(CCNCc2ccc3c(c2)OCO3)CCOC(C)(C)C1` (stereo not drawn) [CBK265599G], the viability at 28.5 h, 10 µM amounted to 92.3%.

Regarding `CC1(C)CC(NS(=O)(=O)c2ccc(Br)cc2)CC(C)(C)N1` [CBK266805], the viability at 28.5 h, 10 µM was 97.7%.

Turning to `CCOC(=O)C1C2CCC3(CC(=O)c4cc(Cl)ccc4O3)C21` (stereo not drawn) [CBK284858], the viability at 28.5 h, 10 µM turned out to be 107%.

As to `COc1cc(/C=C/c2cc(C(F)(F)F)[nH]c(=O)n2)c(Cl)cc1O` [CBK287936], the viability at 28.5 h, 10 µM turned out to be 80%.

`O=C(Nc1cccnc1N1CCNCC1)c1cccnc1` [CBK029426T]: the viability at 28.5 h, 10 µM stood at 120%.

Take `Cn1cnc(S(=O)(=O)N(c2ccc(C(C)(C)C)cc2)C2CCNCC2)c1` [CBK165046T]: the viability at 28.5 h, 10 µM is 87.5%.

Turning to `COC(=O)c1c(NS(=O)(=O)c2cccc(Cl)c2)csc1C` [CBK026678], the viability at 28.5 h, 10 µM worked out at 79.6%.

Turning to `C=CCNC(=O)C1CN(C)CC12CCc1ccccc1C(=O)N2` (stereo not drawn) [CBK282401], the viability at 28.5 h, 10 µM was determined as 83%.

For `CCS(=O)(=O)N1CCN(Cc2ccccc2OC)CC1` [CBK264280G], the viability at 28.5 h, 10 µM is 92.7%.

In the case of `C[C@@H](Nc1cncc(-c2cccc3ccccc23)n1)c1ccccc1` [CBK065646], the viability at 28.5 h, 10 µM came to 93.4%.

Take `CC(Cn1cc(Cl)cn1)C(=O)NCCN(C)C1CCCCC1` (stereo not drawn) [CBK282041]: the viability at 28.5 h, 10 µM amounted to 86.1%.

Regarding `Cc1ccc(S(N)(=O)=O)cc1C(=O)Nc1nncs1` [CBK050456], the viability at 28.5 h, 10 µM amounted to 105%.

On to `COc1ccc(OC(C)(C)C(=O)N2CCCC(c3ccc(Nc4ncccn4)cn3)C2)cc1` (stereo not drawn) [CBK285970], for which the viability at 28.5 h, 10 µM amounted to 83.9%.

Take `CN1CCC(N(C)C(=O)Nc2ccc3c(c2)OCCO3)C1` (stereo not drawn) [CBK156008]: the viability at 28.5 h, 10 µM came to 116%.

`CN1CCC(N2CCN(C(=O)Nc3cccnc3)CC2)CC1` [CBK156111]: the viability at 28.5 h, 10 µM amounted to 93.1%.

Take `OCC1OC(n2cnc3c(S)ncnc32)C(O)C1O` (stereo not drawn) [CBK012260]: the viability at 28.5 h, 10 µM amounted to 64.5%.

In the case of `Cc1cc(C=O)c(O)c(/C=N/CC/N=C/c2cc(C)cc(C=O)c2O)c1` [CBK262149], the viability at 28.5 h, 10 µM is 95.6%.

For `O=C(O)C(Cc1ccccc1)Nc1ncnc2c1oc1ccccc12` (stereo not drawn) [CBK266719], the viability at 28.5 h, 10 µM is 104%.

With `O=S(=O)(Nc1cccc2cc[nH]c12)c1cc(Cl)ccc1Cl` [CBK153581], the viability at 28.5 h, 10 µM worked out at 84.6%.

For the compound `Cc1cc(-c2cn3ccnc3c(N3CCOCC3)n2)cc(C)c1O` [CBK066691], the viability at 28.5 h, 10 µM amounted to 97.4%.

Consider `CN1C(=O)c2ccccc2OCCCCC[C@H]2[C@@H]1CCCN2C(=O)CN1CCN(CCO)CC1` [CBK292144], for which the viability at 28.5 h, 10 µM came to 99%.

For `CCCCSc1sc(C(=O)O)c(-c2ccc(Cl)cc2)c1C#N` [CBK122551], the viability at 28.5 h, 10 µM came to 94.1%.

Consider `Cn1cc(CN2CCNC(=O)C2c2ccccc2C(F)(F)F)cn1` (stereo not drawn) [CBK306407], for which the viability at 28.5 h, 10 µM worked out at 90.4%.

As for `O=C(c1cnccn1)N1CCN(CCc2ccccc2)CC1` [CBK200224], the viability at 28.5 h, 10 µM came out at 101%.

For `Cc1nc(C(Cc2ccsc2)NC(=O)C2CCCNC2)sc1C` (stereo not drawn) [CBK282228], the viability at 28.5 h, 10 µM worked out at 87.6%.

`O=C(O)/C=C/C(=O)N(Cc1ccc2c(c1)OCO2)C1CC(=O)N(c2ccccc2)C1=O` (stereo not drawn) [CBK262786]: the viability at 28.5 h, 10 µM stood at 91.4%.

With `O=C1NCCCC12CCN(Cc1cccc(F)c1F)CC2` [CBK284877], the viability at 28.5 h, 10 µM was 91.8%.

As to `CCOc1ccc(NC(=O)CCc2ncc(C(C)(C)C)o2)c(C)c1` [CBK306021], the viability at 28.5 h, 10 µM was determined as 104%.

As for `O=C1CCCCC1SCn1nnc2ccccc21` (stereo not drawn) [CBK011412], the viability at 28.5 h, 10 µM was determined as 94.8%.

Consider `CC1CN(c2ccc(CNc3ncccc3C#N)cn2)CCO1` (stereo not drawn) [CBK305957], for which the viability at 28.5 h, 10 µM was 99.5%.

For `C/C(=N\NC(=O)CCc1c(C)n[nH]c1C)c1ccc(N)cc1` [CBK262935], the viability at 28.5 h, 10 µM was 97.7%.

In the case of `CCn1c(=O)n(CC2(O)CCCOC2)c2cc(S(=O)(=O)N(C)C)ccc21` (stereo not drawn) [CBK304788], the viability at 28.5 h, 10 µM was determined as 90.6%.

In the case of `O=S(=O)(Nc1ccc2cc(Br)cnc2n1)c1cccc2nsnc12` [CBK073894], the viability at 28.5 h, 10 µM was 82.8%.

As for `COc1ccc(C)cc1S(=O)(=O)N(C)CC(=O)Nc1cccc(SC)c1` [CBK267510], the viability at 28.5 h, 10 µM was 101%.

For `Cc1cccc(OCCNC(=O)CN2CCCC2Cn2cncn2)c1` (stereo not drawn) [CBK305345], the viability at 28.5 h, 10 µM was determined as 102%.

For `CCc1ccccc1C(=O)N1CCCCC1CC` (stereo not drawn) [CBK081556], the viability at 28.5 h, 10 µM came out at 81.9%.

Take `O=S(=O)(Nc1cc(OC2CCNCC2)c2occc2c1)c1c(Cl)cccc1Cl` [CBK074989C]: the viability at 28.5 h, 10 µM is 64.3%.

On to `COc1ccccc1Nc1nc(N)nc(CN2CCc3ccccc3C2)n1` [CBK266635], for which the viability at 28.5 h, 10 µM stood at 95.1%.

`c1ccc(COc2nccnc2-c2ccccc2)cc1` [CBK106686]: the viability at 28.5 h, 10 µM came out at 92.2%.

In the case of `CCCCn1c(CSc2ncccc2C(=O)O)nc2cc(S(=O)(=O)N3CCOCC3)ccc21` [CBK297558], the viability at 28.5 h, 10 µM worked out at 84.1%.

Consider `CCn1cc(CN(C)Cc2csc(C)n2)c2cc(C(=O)O)ncc21` [CBK306950], for which the viability at 28.5 h, 10 µM was 116%.

`O=C(O)CSC1c2ccccc2Oc2ccc(F)cc21` (stereo not drawn) [CBK266462]: the viability at 28.5 h, 10 µM was found to be 98%.

On to `c1ccc2c(c1)OCc1nnc(CCN3CCCCC3)n1-2` [CBK005285], for which the viability at 28.5 h, 10 µM was found to be 95.2%.

Take `Cc1oc(C(=O)Nc2cccc(CCc3ccncc3)c2)cc1CN1CCOCC1` [CBK285547]: the viability at 28.5 h, 10 µM was 92.8%.

On to `COc1ccc(Cl)cc1S(=O)(=O)N1CCN(Cc2ccc3c(c2)OCO3)CC1` [CBK266913], for which the viability at 28.5 h, 10 µM turned out to be 98.5%.

With `CN(C)CCCn1nc2n(c1=O)-c1ccccc1SC(c1ccccc1)C2` (stereo not drawn) [CBK016063], the viability at 28.5 h, 10 µM was determined as 105%.

Turning to `Cc1cc(C)nc(Nc2ncc(O)n2-c2ccccc2)n1` [CBK287914], the viability at 28.5 h, 10 µM came to 93.5%.

With `O=C(Cn1cc(/C=C/c2[nH]c(=O)[nH]c(=O)c2[N+](=O)[O-])c2ccccc21)Nc1ccc2c(c1)OCO2` [CBK267036], the viability at 28.5 h, 10 µM amounted to 80.8%.

As to `Cc1ccc(-n2c(SCC(=O)NCc3ccccc3)nnc2-c2ccc(Cl)cc2)cc1C` [CBK265909], the viability at 28.5 h, 10 µM was found to be 97.9%.

With `CC(=O)c1cccc(NC(=O)Nc2cccc(S(=O)(=O)N3CCOCC3)c2)c1` [CBK266996], the viability at 28.5 h, 10 µM was found to be 89.9%.

With `Cc1noc(C)c1S(=O)(=O)Nc1nc(-c2cccnc2)cs1` [CBK067266], the viability at 28.5 h, 10 µM came out at 91.5%.

On to `Cc1cc(=O)oc2cc(NC(=S)NNC(=O)C3CCN(Cc4ccc(F)cc4Cl)CC3)ccc12` [CBK266953], for which the viability at 28.5 h, 10 µM came to 99.4%.

Consider `S=c1[nH]nc(COc2ccccc2)n1C1CCCCC1` [CBK014411], for which the viability at 28.5 h, 10 µM worked out at 96.2%.

For the compound `CCOc1cc(N2CCOCC2)c(OCC)cc1NC(=O)CSc1ccccc1C(=O)O` [CBK296107], the viability at 28.5 h, 10 µM was determined as 97.1%.

With `OCCc1ccc(Nc2cc(-c3ccco3)ncn2)cc1` [CBK090771], the viability at 28.5 h, 10 µM is 100%.

As to `COc1ccc(S(=O)(=O)N(CC(=O)Nc2ccc3c(c2)OCCO3)c2ccc(F)cc2)cc1` [CBK268584], the viability at 28.5 h, 10 µM came out at 114%.

For `O=C1C2C3C=CC(C3)C2C(=O)N1CCN1CCNCC1` (stereo not drawn) [CBK278185C], the viability at 28.5 h, 10 µM is 92.3%.

As for `COc1ccc2c(c1)CC(=O)NC21CCN(C(=O)NC(C)C)CC1` [CBK047261], the viability at 28.5 h, 10 µM is 95.7%.

Turning to `COc1ccc(CN2CCN(C(=O)c3cccc(F)c3)CC2)cc1` [CBK304396], the viability at 28.5 h, 10 µM stood at 97%.

`COc1cc2c(cc1OC)CN(Cc1ccccc1[N+](=O)[O-])CC2` [CBK261535]: the viability at 28.5 h, 10 µM stood at 89.8%.

As for `CNC(=S)N/N=C/c1c(C)cccc1Cl` [CBK021253], the viability at 28.5 h, 10 µM came to 84.6%.

`COCCCN(Cc1ccc(F)c(F)c1)Cc1ccccn1` [CBK282961]: the viability at 28.5 h, 10 µM was 90.7%.

Turning to `CC(C)CNc1nc(-c2cccc(N(C)C)c2)cnc1N` [CBK063870], the viability at 28.5 h, 10 µM is 97%.

In the case of `O=C(Nc1nccs1)c1ncn[nH]1` [CBK028821], the viability at 28.5 h, 10 µM amounted to 102%.
